The values that follow come from US9024041B2, “P38 MAP kinase inhibitors” (Respivert Ltd., priority 2010, dated 2015).

Data set [1] relates to LPS-induced IL-8 release in d-U937 cells. In words: LPS-induced IL-8 release in d-U937 cells. The format is cell-based. Conditions: Homo sapiens, dU937, 0.1 μg/mL LPS, 4 hr. In short, it runs like this: (§1)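 U937 cells differentiated with PMA (100 ng/mL, 48–72 hr), pre-incubated with compound 2 hr, then stimulated with 0.1 μg/mL E. coli O111:B4 LPS for 4 hr. Supernatant TNFα and IL-8 measured by sandwich ELISA; REC50 (TNFα) and IC50 (IL-8 inhibition vs vehicle) taken from concentration-response curves.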

In data set [2] the test system is Differentiated U937 cells. The experiment in a line: MTT assay: cell viability on exposure to test compounds. The class given is cell-based, human. The note with it: percentage loss of cell viability vs vehicle; for MTT Assay (Viability) 4 h d-U937: 5% FCS; for MTT Assay (Viability) 24 h d-U937: 10% FCS. Summed up: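 Differentiated U937 cells were pre-incubated with compound for either 4 h in 5% FCS or 24 h in 10% FCS, then given MTT for 1 h. Formazan was dissolved in DMSO and read at 550 nm. Viability loss is expressed as % versus 0.5% DMSO vehicle, so an apparent gain appears as a negative value.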
On the technique in general: Formazan colour is commonly taken as a measure of viable cells.

In data set [3] the test system is LPS-induced neutrophil accumulation in Balb/c mice. The experiment in a line: LPS-induced neutrophil accumulation in mice. The class given is in vivo. Conditions: for % inhibition of Influx / Neutrophil numbers in BAL / % inhibition (neutrophil numbers in BAL): 0.2 mg/mL intra tracheal; for inhibitory effects versus neutrophil accumulation into the BALF (in words): dosed 8 hr prior to LPS challenge. The method, then: LPS-Induced Neutrophil Accumulation in Mice
Non-fasted Balb/c mice were dosed by the intra tracheal route with either vehicle, or the test substance at the indicated times (within the range 2-12 hr) before stimulation of the inflammatory response by application of an LPS challenge. At T=0, mice were placed into an exposure chamber and exposed to LPS. After a further 8 hr the animals were anesthetized, their tracheas cannulated and BALF extracted by infusing and then withdrawing from their lungs 1.0 mL of PBS via the tracheal catheter. Total and differential white cell counts in the BALF samples were measured using a Neubaur haemocytometer. Cytospin smears of the BALF samples were prepared by centrifugation at 200 rpm for 5 min at RT and stained using a DiffQuik stain system (Dade Behring). Cells were counted using oil immersion microscopy.

The test system of data set [4] is LPS-induced TNFα release in THP-1 cells. The experiment in a line: LPS-induced TNFα release in THP-1 cells. The format is cell-based. The note with it: Homo sapiens, 3 μg/mL LPS, 4 hr. In short, it runs like this: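 Human monocytic cells were stimulated with 3 μg/mL E. coli LPS for 4 hr. Supernatant TNFα was measured by sandwich ELISA. Inhibition was taken relative to vehicle control, and IC50 derived from the concentration-response curve.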

In data set [5] the test system is Poly I:C-induced ICAM-1 expression in BEAS2B cells. The experiment in a line: Poly I:C-induced ICAM-1 induction in BEAS2B cells. The format is cell-based. The note with it: Homo sapiens, BEAS-2B, poly I:C 1 μg/mL, 18 hr, read-out: PolyI:C/ICAM1 IC50 BEAS2B. Summed up:
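Human bronchial epithelial BEAS2B cells were pre-incubated with compound for 2 h, then transfected with poly I:C at 1 μg/mL. Surface ICAM-1 was measured 18 h later by cell-based ELISA (OD450–655), normalised to crystal-violet cell number (OD595). IC50 was taken from the concentration–response curve against vehicle.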

In data set [6] the target is T1, Recombinant, phosphorylated p38 MAPKγ (MAPK12:Invitrogen) (Homo sapiens, UniProt P53778).
T1 construct: purchased Invitrogen
T1 sequence (P53778 1-367): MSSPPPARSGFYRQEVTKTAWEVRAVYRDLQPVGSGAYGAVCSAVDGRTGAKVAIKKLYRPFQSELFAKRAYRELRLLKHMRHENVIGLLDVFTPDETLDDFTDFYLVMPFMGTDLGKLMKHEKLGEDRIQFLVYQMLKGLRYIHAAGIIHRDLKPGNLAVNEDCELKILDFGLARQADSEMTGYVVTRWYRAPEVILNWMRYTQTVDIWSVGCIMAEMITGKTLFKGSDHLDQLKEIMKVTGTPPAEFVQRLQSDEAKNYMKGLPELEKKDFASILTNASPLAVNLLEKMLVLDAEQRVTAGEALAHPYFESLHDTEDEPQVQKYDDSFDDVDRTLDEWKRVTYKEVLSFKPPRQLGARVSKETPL
In words: p38 MAPKγ enzyme inhibition assay (FRET, Z-LYTE). The class given is biochemical. Conditions: 2 hr pre-incubation, ATP 100 μM; read-out: Enzyme Inhibition IC50 p38γ.
Protocol: (§2) The enzyme inhibitory activities of compounds disclosed herein were determined by fluorescence resonance energy transfer (FRET) using synthetic peptides labelled with both donor and acceptor fluorophores (Z-LYTE, Invitrogen Ltd., Paisley, UK). Recombinant, phosphorylated p38 MAPKγ (MAPK12:Invitrogen) was diluted in HEPES buffer, mixed with the test compound at the desired final concentrations and incubated for 2 hr at RT. The FRET peptide (2 μM) and ATP (100 μM) were added to the enzyme/compound mixture and incubated for 1 hr. Development reagent (protease) was added for 1 hr prior to detection in a fluorescence microplate reader (Varioskan® Flash, ThermoFisher Scientific). The site-specific protease cleaves non-phosphorylated peptide only and eliminates the FRET signal. Phosphorylation levels of each reaction were calculated using the ratio of coumarin emission (donor) over fluorescein emission (acceptor) for which high ratios indicate high phosphorylation and low ratios indicate low phosphorylation levels.

Data set [7] concerns the target T2, p38 MAPKα isoform (MAPK14: Invitrogen) (Homo sapiens, UniProt Q16539).
T2 construct: purchased Invitrogen
In words: p38 MAPKα enzyme inhibition assay (FRET, Z-LYTE, via MAPKAP-K2 activation). The format is biochemical. The note with it: 2 hr pre-incubation, ATP 10.0 μM; read-out: Enzyme Inhibition IC50 p38α.
Protocol: as §2
For the p38 MAPKα isoform (MAPK14: Invitrogen), enzyme activity was evaluated indirectly by determining the level of activation/phosphorylation of the down-stream molecule, MAPKAP-K2. The p38 MAPKα protein was mixed with the test compound for 2 hr at RT. […] Development reagent was then added and the mixture incubated for 1 hr before detection by fluorescence completed the assay protocol.

In data set [8] the test system is LPS-induced TNFα release in d-U937 cells. The experiment in a line: LPS-induced TNFα release in d-U937 cells. Conditions: Homo sapiens, dU937, 4 h; read-out: LPS/TNFα REC50 d-U937. The format is cell-based. In short, it runs like this:
as §1

“Also recorded” adds a separate entry of the source. Marks after values point to notes of the source that are not given here.

T2 sequence (Q16539 whole entry, canonical isoform): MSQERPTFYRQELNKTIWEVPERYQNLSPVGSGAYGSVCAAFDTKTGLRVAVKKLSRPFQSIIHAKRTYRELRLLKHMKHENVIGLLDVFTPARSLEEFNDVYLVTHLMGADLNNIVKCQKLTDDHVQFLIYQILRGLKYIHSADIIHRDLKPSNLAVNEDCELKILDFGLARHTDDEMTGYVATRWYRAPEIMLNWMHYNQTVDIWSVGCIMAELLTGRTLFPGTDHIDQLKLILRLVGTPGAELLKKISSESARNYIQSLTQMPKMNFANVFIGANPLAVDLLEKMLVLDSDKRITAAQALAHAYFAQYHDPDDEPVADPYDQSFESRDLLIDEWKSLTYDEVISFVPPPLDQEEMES

In the case of `COCC(=O)Nc1cc(Oc2ccc(NC(=O)Nc3cc(C(C)(C)C)nn3-c3ccc(OC)nc3)c3ccccc23)ccn1` [Example 16, N-(4-(4-(3-(3-tert-Butyl-1-(6-methoxypyridin-3-yl)-1H-pyrazol-5-yl)ureido)naphthalen-1-yloxy)pyridin-2-yl)-2-methoxyacetamide], the IC50 in data set [1] was determined as 29.6 nM; in data set [4] it was 1.2 nM; in data set [5] it was 8.1 nM; in data set [6] it was 54.3 nM; in data set [7] it was 4.5 nM. In addition, the “MTT Assay (Viability) 4 h d-U937” value in data set [2] (1 μg/mL) is on record as −16.7%. In addition, in data set [2] (1 μg/mL), the “MTT Assay (Viability) 24 h d-U937” value was −6.2%. The “% inhibition of Influx” value in data set [3] (8 h pre-dose before LPS) worked out at 55%. The “Neutrophil numbers in BAL” value in data set [3] (8 h pre-dose before LPS) was 6.3 ± 1.2 × 10^5/mL. The “inhibitory effects versus neutrophil accumulation into the BALF (in words)” value in data set [3] is listed as “inhibitory effects; also recorded: particularly marked”. In data set [8], the EC50 was determined as 1.2 nM.

Turning to `CC(C)(C)c1cc(NC(=O)Nc2ccc(Oc3ccnc(NC(N)=O)c3)c3ccccc23)n(-c2ccc(S(C)(=O)=O)cc2)n1` [Example 45, 1-(3-tert-butyl-1-(4-(methylsulfonyl)phenyl)-1H-pyrazol-5-yl)-3-(4-((2-ureidopyridin-4-yl)oxy)naphthalen-1-yl)urea], the IC50 in data set [1] is 0.5 nM; in data set [4], 2.2 nM; in data set [5] it was 30.9 nM; in data set [6], 48.7 nM; in data set [7], 18.9 nM. The “MTT Assay (Viability) 4 h d-U937” value in data set [2] (1 μg/mL) was −14.4%. For the same molecule, in data set [2] (1 μg/mL), the “MTT Assay (Viability) 24 h d-U937” value is given as 13.9%. Besides, the “% inhibition of Influx” value in data set [3] (8 h pre-dose before LPS) is 24%. The “Neutrophil numbers in BAL” value in data set [3] (8 h pre-dose before LPS) is reported as 13.2 ± 2.2 × 10^5/mL. In addition, the “inhibitory effects versus neutrophil accumulation into the BALF (in words)” value in data set [3] is “inhibitory effects”. Also, in data set [8], the EC50 is 0.3 nM.

Turning to `CN(C)C(=O)Nc1cc(Oc2ccc(NC(=O)Nc3cc(C(C)(C)C)nn3-c3ccc(O)cc3)c3ccccc23)ccn1` [Example 34, 3-(4-(4-(3-(3-tert-butyl-1-(4-hydroxyphenyl)-1H-pyrazol-5-yl)ureido)naphthalen-1-yloxy)pyridin-2-yl)-1,1-dimethylurea], the IC50 in data set [1] was found to be 1.9 nM; in data set [4], 1.5 nM; in data set [5], 4.4 nM; in data set [6] it was 89.3 nM; in data set [7], 2 nM. Also, in data set [2] (1 μg/mL), the “MTT Assay (Viability) 4 h d-U937” value is given as −25.8%. Besides, in data set [2] (1 μg/mL), the “MTT Assay (Viability) 24 h d-U937” value was −43.4%. In data set [3] (8 h pre-dose before LPS), the “% inhibition of Influx” value is reported as 14%. In addition, in data set [3] (8 h pre-dose before LPS), the “Neutrophil numbers in BAL” value is recorded as 12.0 ± 1.7 × 10^5/mL. Moreover, the “inhibitory effects versus neutrophil accumulation into the BALF (in words)” value in data set [3] was “inhibitory effects”.

Consider `CCNC(=O)Nc1cc(C(=O)c2ccc(NC(=O)Nc3cc(C(C)(C)C)nn3-c3ccc(C)cc3)c3ccccc23)ccn1` [Example 67, 1-(3-tert-butyl-1-p-tolyl-1H-pyrazol-5-yl)-3-(4-(2-(3-ethylureido)isonicotinoyl)naphthalen-1-yl)urea], for which the IC50 in data set [1] came out at 21.9 nM; in data set [4] it was 6.5 nM; in data set [5], 13.8 nM; in data set [6], 443 nM; in data set [7], 18.8 nM. For the same molecule, the “MTT Assay (Viability) 4 h d-U937” value in data set [2] (10 μg/mL) was −9.9^b %. The “MTT Assay (Viability) 24 h d-U937” value in data set [2] (10 μg/mL) is recorded as 8.8^b %. For the same molecule, the figures for the “% inhibition (neutrophil numbers in BAL)” value in data set [3] (2 hr pre-dose before LPS) and in data set [3] (12 h pre-dose before LPS) were 40% and 20%, respectively. For the same molecule, the “Neutrophil numbers in BAL” value in data set [3] (2 hr pre-dose before LPS) is 10.5 ± 1.5 × 10^5/ml; in data set [3] (12 h pre-dose before LPS), 14.2 ± 1.7 × 10^5/ml. The “inhibition of neutrophil accumulation into the BALF (in words)” value in data set [3] (administered 2 and 12 hr prior to LPS challenge) is “marked and long-lasting inhibition”. Moreover, in data set [8], the EC50 was determined as 17.6 nM.

Regarding `CC(C)(C)c1cc(NC(=O)Nc2ccc(Oc3ccnc(NC(=O)N4CCOCC4)c3)c3ccccc23)n(-c2ccc(S(C)(=O)=O)cc2)n1` [Example 49, N-(4-(4-(3-(3-tert-butyl-1-(4-(methylsulfonyl)phenyl)-1H-pyrazol-5-yl)ureido)naphthalen-1-yloxy)pyridin-2-yl)morpholine-4-carboxamide], the IC50 in data set [1] came to 0.8 nM; in data set [4] it was 0.8 nM; in data set [5] it was 10.7 nM; in data set [6], 185 nM; in data set [7], 5.2 nM. Also, the “MTT Assay (Viability) 4 h d-U937” value in data set [2] (1 μg/mL) is −15.9%. In data set [2] (1 μg/mL), the “MTT Assay (Viability) 24 h d-U937” value turned out to be 11.8%. The EC50 in data set [8] was 0.5 nM.

In the case of `COCC(=O)Nc1cc(Oc2ccc(NC(=O)Nc3cc(C(C)(C)C)nn3-c3ccc(CO)c(Cl)c3)c3ccccc23)ccn1` [Example 13, N-(4-(4-(3-(3-tert-Butyl-1-(3-chloro-4-(hydroxymethyl)phenyl)-1H-pyrazol-5-yl)ureido)naphthalen-1-yloxy)pyridin-2-yl)-2-methoxyacetamide], the IC50 is 8.6 nM in data set [1]; 1.3 nM in data set [4]; 2.3 nM in data set [5]; 168 nM in data set [6]; 10.7 nM in data set [7]. In data set [2] (1 μg/mL), the “MTT Assay (Viability) 4 h d-U937” value is on record as −28.5%. The “MTT Assay (Viability) 24 h d-U937” value in data set [2] (1 μg/mL) came to 27.0%. The “% inhibition of Influx” value in data set [3] (8 h pre-dose before LPS) is on record as 43%. In addition, the “Neutrophil numbers in BAL” value in data set [3] (8 h pre-dose before LPS) was 9.9 ± 1.2 × 10^5/mL. Moreover, the “inhibitory effects versus neutrophil accumulation into the BALF (in words)” value in data set [3] is “inhibitory effects; also recorded: particularly marked”. For the same molecule, the EC50 in data set [8] was 0.03 nM.

`CNC(=O)Nc1cc(Oc2ccc(NC(=O)Nc3cc(C(C)(C)C)nn3-c3ccc(OC)cc3)c3ccccc23)ccn1` [Example 38, 1-(4-(4-(3-(3-tert-butyl-1-(4-methoxyphenyl)-1H-pyrazol-5-yl)ureido)naphthalen-1-yloxy)pyridin-2-yl)-3-methylurea]: the IC50 turned out to be 21.8 nM in data set [1]; 1.7 nM in data set [4]; 9.8 nM in data set [5]; 122 nM in data set [6]; 15.7 nM in data set [7]. Further, the “MTT Assay (Viability) 4 h d-U937” value in data set [2] (1 μg/mL) is reported as −1.7%. Further, in data set [2] (1 μg/mL), the “MTT Assay (Viability) 24 h d-U937” value is given as −38.2%. Further, the EC50 in data set [8] was 18.4 nM.
